Data taken from ChEMBL document CHEMBL3739333, “Nature of the charged head group dictates the anticancer potential of lithocholic acid-tamoxifen conjugates for breast cancer therapy” (Medchemcomm, 2015).
The source made the active and inactive calls. The calls are words filed in the database; no cut-off is given here.

Assays:
[1] = Retention time of the compound by HPLC analysis; assay type: physicochemical
[2] = tested on: MDA-MB-468; experiment: Cytotoxicity against human ER negative MDA-MB-468 cells after 48 hrs by MTT assay; assay type: functional, cell-based; conditions: MDA-MB-468, 48 h
[3] = tested on: T47D; experiment: Cytotoxicity against human T47D cells expressing ER after 48 hrs by MTT assay; assay type: functional, cell-based
[4] = tested on: MCF7; experiment: Cytotoxicity against human MCF7 cells expressing ER after 48 hrs by MTT assay; assay type: functional, cell-based; conditions: MCF7, 48 h
[5] = tested on: MDA-MB-231; experiment: Cytotoxicity against human ER negative MDA-MB-231 cells after 48 hrs by MTT assay; assay type: functional, cell-based; conditions: MDA-MB-231, 48 h
[6] = tested on: Lipid bilayer; experiment: Binding affinity to DPPC membranes assessed as changes in membrane fluidity of liposomes by measuring fluorescence anisotropy; conditions: Liposome; TDE = time-dependent effect
[7] = tested on: MCF7; experiment: Decrease in caspase-7 level in human MCF7 cells expressing ER at 10 uM after 48 hrs by Western blot analysis; assay type: functional, cell-based
[8] = tested on: Lipid bilayer; experiment: Binding affinity to DPPC membranes assessed as lowering of phase transition temperature
[9] = tested on: MDA-MB-231; experiment: Induction of apoptosis in human ER negative MDA-MB-231 cells assessed as change in mitochondrial membrane potential at 10 to 20 uM after 48 hrs using DiOC6 dye based FACS analysis; assay type: functional, cell-based
[10] = tested on: T47D; experiment: Ratio of tamoxifen IC50 to compound IC50 for human ER positive T47D cells after 48 hrs by MTT assay; assay type: functional
[11] = tested on: MDA-MB-231; experiment: Induction of apoptosis in human ER negative MDA-MB-231 cells assessed as increase of cleaved caspase 8 level at 10 uM after 48 hrs by Western blot analysis; assay type: functional, cell-based
[12] = tested on: MCF7; experiment: Decrease in pro-caspase-8 level in human MCF7 cells expressing ER at 10 uM after 48 hrs by Western blot analysis; assay type: functional, cell-based
[13] = tested on: MCF7; experiment: Induction of apoptosis in human MCF7 cells expressing ER assessed as decrease of Bcl-xL protein expression at 10 uM after 48 hrs by Western blot analysis; assay type: functional, cell-based
[14] = tested on: MDA-MB-231; experiment: Induction of apoptosis in human ER negative MDA-MB-231 cells assessed as effect on caspase 9 level at 10 uM after 48 hrs by Western blot analysis; assay type: functional, cell-based
[15] = tested on: MDA-MB-231; experiment: Ratio of tamoxifen IC50 to compound IC50 for human ER negative MDA-MB-231 cells after 48 hrs by MTT assay; assay type: functional
[16] = Binding affinity to model membranes using Laurdan-based hydration assessed as changes in generalized polarization after 6 hrs
[17] = tested on: MCF7; experiment: Induction of apoptosis in human MCF7 cells expressing ER assessed as change in mitochondrial membrane potential at 10 to 20 uM after 48 hrs using DiOC6 dye based FACS analysis; assay type: functional, cell-based
[18] = tested on: MCF7; experiment: Induction of apoptosis in human MCF7 cells expressing ER assessed as increase of ROS level at 20 uM after 60 mins using DCFDA relative to control; assay type: functional, cell-based
[19] = tested on: MDA-MB-231; experiment: Induction of apoptosis in human ER negative MDA-MB-231 cells assessed as increase of cleaved caspase 7 level at 10 uM after 48 hrs by Western blot analysis; assay type: functional, cell-based
[20] = tested on: MDA-MB-231; experiment: Induction of apoptosis in human ER negative MDA-MB-231 cells assessed as increase of ROS level at 20 uM after 60 mins using DCFDA relative to control; assay type: functional
[21] = tested on: MCF7; experiment: Decrease in active-caspase-8 level in human MCF7 cells expressing ER at 10 uM after 48 hrs by Western blot analysis; assay type: functional, cell-based
[22] = tested on: MDA-MB-231; experiment: Cell cycle arrest in human ER negative MDA-MB-231 cells assessed as accumulation of sub-G0 phase after 48 hrs by FACS analysis; assay type: functional, cell-based
[23] = tested on: MDA-MB-231; experiment: Induction of apoptosis in human ER negative MDA-MB-231 cells assessed as increase of cleaved caspase 6 level at 10 uM after 48 hrs by Western blot analysis; assay type: functional, cell-based
[24] = tested on: MDA-MB-231; experiment: Induction of apoptosis in human ER negative MDA-MB-231 cells assessed as decrease of Bcl-2 protein expression at 10 uM after 48 hrs by Western blot analysis; assay type: functional, cell-based
[25] = tested on: MDA-MB-231; experiment: Induction of apoptosis in human ER negative MDA-MB-231 cells assessed as increase of Bax protein expression at 10 uM after 48 hrs by Western blot analysis; assay type: functional, cell-based
[26] = tested on: MDA-MB-231; experiment: Induction of apoptosis in human ER negative MDA-MB-231 cells assessed as effect of Bcl-xL protein expression at 10 uM after 48 hrs by Western blot analysis; assay type: functional, cell-based
[27] = tested on: MCF7; experiment: Decrease in caspase-6 level in human MCF7 cells expressing ER at 10 uM after 48 hrs by Western blot analysis; assay type: functional, cell-based
[28] = tested on: MCF7; experiment: Induction of apoptosis in human MCF7 cells expressing ER assessed as effect of Bax protein expression at 10 uM after 48 hrs by Western blot analysis; assay type: functional, cell-based
[29] = tested on: MCF7; experiment: Induction of apoptosis in human MCF7 cells expressing ER assessed as decrease of Bcl-2 protein expression at 10 uM after 48 hrs by Western blot analysis; assay type: functional, cell-based
[30] = tested on: MCF7; experiment: Cell cycle arrest in human MCF7 cells expressing ER assessed as accumulation of sub-G0 phase at 20 uM after 48 hrs by FACS analysis relative to control; assay type: functional
[31] = tested on: MCF7; experiment: Induction of apoptosis in human MCF7 cells expressing ER assessed as effect on caspase 9 level at 10 uM after 48 hrs by Western blot analysis; assay type: functional, cell-based
[32] = tested on: MDA-MB-468; experiment: Ratio of tamoxifen IC50 to compound IC50 for human ER negative MDA-MB-468 cells after 48 hrs by MTT assay; assay type: functional
[33] = tested on: MDA-MB-231; experiment: Cell cycle arrest in human ER negative MDA-MB-231 cells assessed as accumulation of sub-G0 phase at 20 uM after 48 hrs by FACS analysis relative to control; assay type: functional
[34] = tested on: MCF7; experiment: Cell cycle arrest in human MCF7 cells expressing ER assessed as accumulation of sub-G0 phase after 48 hrs by FACS analysis; assay type: functional, cell-based
[35] = tested on: MDA-MB-231; experiment: Drug uptake in human ER negative MDA-MB-231 cells; assay type: ADME, cell-based
[36] = tested on: MCF7; experiment: Drug uptake in human MCF7 cells expressing ER; assay type: ADME, cell-based

CC/C(=C(\c1ccccc1)c1ccc(OCCN(C)C(=O)CC[C@@H](C)[C@H]2CC[C@H]3[C@@H]4CC[C@@H]5C[C@H](OC(=O)C[N+](C)(C)C)CC[C@]5(C)[C@H]4CC[C@]23C)cc1)c1ccccc1.[Cl-]
Retention_time [1]: 6.676 min | IC50 [2]: 15 µM | IC50 [3]: 8.1 µM | IC50 [4]: 28.9 µM | IC50 [5]: 18.1 µM

CC/C(=C(\c1ccccc1)c1ccc(OCCN(C)C(=O)CC[C@@H](C)[C@H]2CC[C@H]3[C@@H]4CC[C@@H]5C[C@H](OC(=O)C[N+]67CCN(CC6)CC7)CC[C@]5(C)[C@H]4CC[C@]23C)cc1)c1ccccc1.[Cl-]
Retention_time [1]: 6.735 min | IC50 [2]: 20.9 µM | IC50 [3]: 17.9 µM | IC50 [4]: > 50 µM | IC50 [5]: 20 µM

CC/C(=C(\c1ccccc1)c1ccc(OCCN(C)C(=O)CC[C@@H](C)[C@H]2CC[C@H]3[C@@H]4CC[C@@H]5C[C@H](OC(=O)C[n+]6ccc(N(C)C)cc6)CC[C@]5(C)[C@H]4CC[C@]23C)cc1)c1ccccc1.[Cl-]
Activity [6]: tde | inhibition [7]: Active | Activity [8]: Active | Activity [9]: Active | Ratio IC50 [10]: 4 | Activity [11]: Active | inhibition [12]: Active | Activity [13]: Active | Activity [14]: inactive | Ratio IC50 [15]: 4 | Activity [16]: Active | Activity [17]: inactive | Activity [18]: inactive | Activity [19]: Active | Retention_time [1]: 6.837 min | IC50 [2]: 3.13 µM | fold change (FC) [20]: 2.3 | inhibition [21]: Active | Activity [22]: Dose-dependent effect | Activity [23]: Active | Activity [24]: Active | Activity [25]: Active | Activity [26]: inactive | IC50 [3]: 7 µM | inhibition [27]: Active | Activity [28]: inactive | Activity [29]: Active | fold change (FC) [30]: 6 | Activity [31]: inactive | Ratio IC50 [32]: 4 | fold change (FC) [33]: 5 | Activity [34]: Dose-dependent effect | IC50 [4]: 12.7 µM | IC50 [5]: 6.5 µM

CC/C(=C(\c1ccccc1)c1ccc(OCCN(C)C(=O)CC[C@@H](C)[C@H]2CC[C@H]3[C@@H]4CC[C@@H]5C[C@H](OC(=O)CN)CC[C@]5(C)[C@H]4CC[C@]23C)cc1)c1ccccc1
Activity [6]: tde | Activity [16]: Active | IC50 [2]: > 50 µM | IC50 [3]: > 50 µM | IC50 [4]: > 50 µM | IC50 [5]: > 50 µM

C[C@H](CCC(=O)O)[C@H]1CC[C@H]2[C@@H]3CC[C@@H]4C[C@H](OC(=O)C[n+]5ccc(N(C)C)cc5)CC[C@]4(C)[C@H]3CC[C@]12C
Activity [6]: tde | Activity [8]: Active | Activity [16]: inactive | Activity [17]: inactive | IC50 [2]: 9.1 µM | Activity [22]: Dose-dependent effect | IC50 [3]: 13.3 µM | Activity [34]: Dose-dependent effect | IC50 [4]: 43.4 µM | IC50 [5]: 13.7 µM

C[C@H](CCC(=O)NCc1cn(CCNc2ccc([N+](=O)[O-])c3nonc23)nn1)[C@H]1CC[C@H]2[C@@H]3CC[C@@H]4C[C@H](OC(=O)C[n+]5ccc(N(C)C)cc5)CC[C@]4(C)[C@H]3CC[C@]12C.[Cl-]
Drug uptake [35]: Active | Drug uptake [36]: Active

CC/C(=C(\c1ccccc1)c1ccc(OCCN(C)c2ccc([N+](=O)[O-])c3nonc23)cc1)c1ccccc1
Drug uptake [35]: Active | Drug uptake [36]: Active

CC/C(=C(\c1ccccc1)c1ccc(OCCN(C)C(=O)CC[C@@H](C)[C@H]2CC[C@H]3[C@@H]4CC[C@@H]5C[C@H](OC(=O)C[N+]6(C)CCCC6)CC[C@]5(C)[C@H]4CC[C@]23C)cc1)c1ccccc1.[Cl-]
Retention_time [1]: 6.79 min | IC50 [2]: 6.61 µM | IC50 [3]: 8.4 µM | IC50 [4]: 24 µM | IC50 [5]: 12.6 µM

CC/C(=C(\c1ccccc1)c1ccc(OCCN(C)C(=O)CC[C@@H](C)[C@H]2CC[C@H]3[C@@H]4CC[C@@H]5C[C@H](OC(=O)C[n+]6ccccc6)CC[C@]5(C)[C@H]4CC[C@]23C)cc1)c1ccccc1.[Cl-]
Retention_time [1]: 7.033 min | IC50 [2]: 13.6 µM | IC50 [3]: 17.4 µM | IC50 [4]: > 50 µM | IC50 [5]: 18 µM

CC/C(=C(\c1ccccc1)c1ccc(OCCN(C)C)cc1)c1ccccc1 [TAMOXIFEN]
Activity [6]: tde | Activity [8]: inactive | Activity [9]: inactive | Activity [16]: inactive | Activity [17]: inactive | IC50 [2]: 15 µM | fold change (FC) [20]: 1.8 | Activity [22]: Dose-dependent effect | IC50 [3]: 29.9 µM | fold change (FC) [30]: 2 | fold change (FC) [33]: 3 | Activity [34]: Dose-dependent effect | IC50 [5]: 27 µM

CC/C(=C(\c1ccccc1)c1ccc(OCCN(C)C(=O)CC[C@@H](C)[C@H]2CC[C@H]3[C@@H]4CC[C@@H]5C[C@H](OC(=O)C[N+]6(C)CCOCC6)CC[C@]5(C)[C@H]4CC[C@]23C)cc1)c1ccccc1.[Cl-]
Retention_time [1]: 6.741 min | IC50 [2]: 15.3 µM | IC50 [3]: 45.2 µM | IC50 [4]: 43.6 µM | IC50 [5]: 48.2 µM

CC/C(=C(\c1ccccc1)c1ccc(OCCN(C)C(=O)CC[C@@H](C)[C@H]2CC[C@H]3[C@@H]4CC[C@@H]5C[C@H](OC(=O)C[N+]6(C)CCCCC6)CC[C@]5(C)[C@H]4CC[C@]23C)cc1)c1ccccc1.[Cl-]
Retention_time [1]: 6.767 min | IC50 [2]: 7.6 µM | IC50 [3]: 9.8 µM | IC50 [4]: 24.5 µM | IC50 [5]: 9.2 µM
